Measured values taken from PubChem BioAssay AID1963438 (Molecular Pharmacology Branch, DTP, NCI, 2024).
pIC50: −log10 of the molar value. “And” between values parts separate entries of the source, which are not always exact repeats. Identical values can stand only once. Each block holds one compound with its values, some of them ahead of it.

Test system: NCI-H510 multicellular tumor spheroid growth, % test/control
Experiment: Anticancer human tumor NCI-H510 cell line growth inhibition [Asc];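 note: spheroids exposed to agents for 7 days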;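 for viability, T/C: 100% = DMSO vehicle control wells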
Conditions: for viability, T/C: stronger effect = lower value
Outline: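 Complex solid-tumor spheroids incorporating human endothelial and mesenchymal stem cells received single agents or combinations over half-log dilution ranges anchored to clinical Cmax.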

[1] = curve of first compound, second compound 0.1 µM
[2] = curve of first compound, second compound 0.316 µM
[3] = curve of first compound, second compound 1 µM
[4] = curve of first compound, second compound 3.16 µM
[5] = curve of first compound, second compound 10 µM
[6] = second compound 0.1 µM, first compound 0.0316 µM
[7] = second compound 0.1 µM, first compound 0.1 µM
[8] = second compound 0.316 µM, first compound 0.0316 µM
[9] = second compound 0.316 µM, first compound 0.1 µM
[10] = second compound 1 µM, first compound 0.0316 µM
[11] = second compound 1 µM, first compound 0.1 µM
[12] = second compound 3.16 µM, first compound 0.0316 µM
[13] = second compound 3.16 µM, first compound 0.1 µM
[14] = second compound 10 µM, first compound 0.0316 µM
[15] = second compound 10 µM, first compound 0.1 µM

pIC50 (curve of compound): < 5.00
SMILES: C=CC(=O)N1CCN(c2nc(=O)n(-c3c(C)ccnc3C(C)C)c3nc(-c4c(O)cccc4F)c(F)cc23)C(C)C1 (centres undefined)
viability, T/C (compound 0.0316 µM): 101% and 89.6% and 100%
viability, T/C (compound 0.1 µM): 100% and 95.4% and 104%
viability, T/C (compound 0.316 µM): 105% and 90.3% and 98.7%
viability, T/C (compound 1 µM): 94.5% and 82.8% and 106%
viability, T/C (compound 3.16 µM): 108% (2×) and 100%
viability, T/C (compound 10 µM): 96.6% and 75.9% and 110%

pIC50 (compound alone, run of 10/24/2022): < 6.00
pIC50 (compound alone, run of 11/15/2022): < 6.00
pIC50 (curve of compound): < 6.00
SMILES: CNC(C)C(=O)NC1CN(S(=O)(=O)c2cccc(S(=O)(=O)N3CCC4CCC(C(=O)NC(c5ccccc5)c5ccccc5)N4C(=O)C(NC(=O)C(C)NC)C3)c2)CCC2CCC(C(=O)NC(c3ccccc3)c3ccccc3)N2C1=O (centres undefined)
viability, T/C (compound 0.00316 µM): 103% and 100% and 104%
viability, T/C (compound 0.01 µM): 106% [middle of 14 runs]
viability, T/C (compound 0.0316 µM): 102% [middle of 14 runs]
viability, T/C (compound 0.1 µM): 103% [middle of 14 runs]

pIC50 [1]: < 5.52
pIC50 [2]: < 5.52
pIC50 [3]: < 5.52
pIC50 [4]: < 5.52
pIC50 [5]: < 5.52
SMILES: Cc1nc(N2CCC3(CC2)COC(C)C3N)c(CO)nc1Sc1ccnc(N)c1Cl (centres undefined) + Cc1c(S(C)(=O)=O)c(-c2cc(F)cc(N3CCN(c4ccc(NS(=O)(=O)c5ccc(NC(CCN6CCC(C(=O)OCCCP(=O)(O)O)CC6)CSc6ccccc6)c(S(=O)(=O)C(F)(F)F)c5)cc4)CC3)c2)c(-c2ccc(Cl)cc2)n1C(C)C
viability, T/C (second compound 0.1 µM, first compound 0.00949 µM): 126%
viability, T/C (second compound 0.1 µM, first compound 0.03 µM): 122%
viability, T/C (second compound 0.1 µM, first compound 0.0949 µM): 112%
viability, T/C (second compound 0.1 µM, first compound 0.3 µM): 111%
viability, T/C (second compound 0.1 µM, first compound 0.949 µM): 128%
viability, T/C (second compound 0.1 µM, first compound 3 µM): 117%
viability, T/C (second compound 0.316 µM, first compound 0.00949 µM): 125%
viability, T/C (second compound 0.316 µM, first compound 0.03 µM): 130%
viability, T/C (second compound 0.316 µM, first compound 0.0949 µM): 136%
viability, T/C (second compound 0.316 µM, first compound 0.3 µM): 127%
viability, T/C (second compound 0.316 µM, first compound 0.949 µM): 111%
viability, T/C (second compound 0.316 µM, first compound 3 µM): 132%
viability, T/C (second compound 1 µM, first compound 0.00949 µM): 92.8%
viability, T/C (second compound 1 µM, first compound 0.03 µM): 139%
viability, T/C (second compound 1 µM, first compound 0.0949 µM): 122%
viability, T/C (second compound 1 µM, first compound 0.3 µM): 102%
viability, T/C (second compound 1 µM, first compound 0.949 µM): 118%
viability, T/C (second compound 1 µM, first compound 3 µM): 130%
viability, T/C (second compound 3.16 µM, first compound 0.00949 µM): 132%
viability, T/C (second compound 3.16 µM, first compound 0.03 µM): 128%
viability, T/C (second compound 3.16 µM, first compound 0.0949 µM): 137%
viability, T/C (second compound 3.16 µM, first compound 0.3 µM): 123%
viability, T/C (second compound 3.16 µM, first compound 0.949 µM): 119%
viability, T/C (second compound 3.16 µM, first compound 3 µM): 118%
viability, T/C (second compound 10 µM, first compound 0.00949 µM): 133%
viability, T/C (second compound 10 µM, first compound 0.03 µM): 123%
viability, T/C (second compound 10 µM, first compound 0.0949 µM): 125%
viability, T/C (second compound 10 µM, first compound 0.3 µM): 94%
viability, T/C (second compound 10 µM, first compound 0.949 µM): 114%
viability, T/C (second compound 10 µM, first compound 3 µM): 95.2%

pIC50 [1]: < 7.00
pIC50 [2]: < 7.00
pIC50 [3]: < 7.00
pIC50 [4]: < 7.00
pIC50 [5]: < 7.00
SMILES: NC1CCC(NC2CC2c2ccccc2)CC1 (centres undefined) + Cc1c(S(C)(=O)=O)c(-c2cc(F)cc(N3CCN(c4ccc(NS(=O)(=O)c5ccc(NC(CCN6CCC(C(=O)OCCCP(=O)(O)O)CC6)CSc6ccccc6)c(S(=O)(=O)C(F)(F)F)c5)cc4)CC3)c2)c(-c2ccc(Cl)cc2)n1C(C)C
viability, T/C (second compound 0.1 µM, first compound 0.000316 µM): 88.8%
viability, T/C (second compound 0.1 µM, first compound 0.001 µM): 85%
viability, T/C (second compound 0.1 µM, first compound 0.00316 µM): 74.1%
viability, T/C (second compound 0.1 µM, first compound 0.01 µM): 87.7%
viability, T/C [6]: 67.5%
viability, T/C [7]: 90.4%
viability, T/C (second compound 0.316 µM, first compound 0.000316 µM): 86.1%
viability, T/C (second compound 0.316 µM, first compound 0.001 µM): 85.8%
viability, T/C (second compound 0.316 µM, first compound 0.00316 µM): 76.9%
viability, T/C (second compound 0.316 µM, first compound 0.01 µM): 66.5%
viability, T/C [8]: 78.4%
viability, T/C [9]: 97.9%
viability, T/C (second compound 1 µM, first compound 0.000316 µM): 116%
viability, T/C (second compound 1 µM, first compound 0.001 µM): 77.8%
viability, T/C (second compound 1 µM, first compound 0.00316 µM): 63.8%
viability, T/C (second compound 1 µM, first compound 0.01 µM): 67.1%
viability, T/C [10]: 64%
viability, T/C [11]: 59.6%
viability, T/C (second compound 3.16 µM, first compound 0.000316 µM): 81%
viability, T/C (second compound 3.16 µM, first compound 0.001 µM): 80.2%
viability, T/C (second compound 3.16 µM, first compound 0.00316 µM): 74.8%
viability, T/C (second compound 3.16 µM, first compound 0.01 µM): 67.1%
viability, T/C [12]: 80.6%
viability, T/C [13]: 69.9%
viability, T/C (second compound 10 µM, first compound 0.000316 µM): 66.8%
viability, T/C (second compound 10 µM, first compound 0.001 µM): 63.1%
viability, T/C (second compound 10 µM, first compound 0.00316 µM): 63.6%
viability, T/C (second compound 10 µM, first compound 0.01 µM): 91%
viability, T/C [14]: 102%
viability, T/C [15]: 36.1%

pIC50 [1]: < 5.00
pIC50 [2]: < 5.00
pIC50 [3]: < 5.00
pIC50 [4]: < 5.00
pIC50 [5]: < 5.00
SMILES: C=CC(=O)N1CCN(c2nc(=O)n(-c3c(C)ccnc3C(C)C)c3nc(-c4c(O)cccc4F)c(F)cc23)C(C)C1 (centres undefined) + Cc1c(S(C)(=O)=O)c(-c2cc(F)cc(N3CCN(c4ccc(NS(=O)(=O)c5ccc(NC(CCN6CCC(C(=O)OCCCP(=O)(O)O)CC6)CSc6ccccc6)c(S(=O)(=O)C(F)(F)F)c5)cc4)CC3)c2)c(-c2ccc(Cl)cc2)n1C(C)C
viability, T/C [6]: 102%
viability, T/C [7]: 110%
viability, T/C (second compound 0.1 µM, first compound 0.316 µM): 124%
viability, T/C (second compound 0.1 µM, first compound 1 µM): 94.7%
viability, T/C (second compound 0.1 µM, first compound 3.16 µM): 86.3%
viability, T/C (second compound 0.1 µM, first compound 10 µM): 98.4%
viability, T/C [8]: 106%
viability, T/C [9]: 103%
viability, T/C (second compound 0.316 µM, first compound 0.316 µM): 115%
viability, T/C (second compound 0.316 µM, first compound 1 µM): 103%
viability, T/C (second compound 0.316 µM, first compound 3.16 µM): 109%
viability, T/C (second compound 0.316 µM, first compound 10 µM): 86%
viability, T/C [10]: 85.6%
viability, T/C [11]: 89.5%
viability, T/C (second compound 1 µM, first compound 0.316 µM): 115%
viability, T/C (second compound 1 µM, first compound 1 µM): 121%
viability, T/C (second compound 1 µM, first compound 3.16 µM): 98.1%
viability, T/C (second compound 1 µM, first compound 10 µM): 79.3%
viability, T/C [12]: 80%
viability, T/C [13]: 100%
viability, T/C (second compound 3.16 µM, first compound 0.316 µM): 117%
viability, T/C (second compound 3.16 µM, first compound 1 µM): 118%
viability, T/C (second compound 3.16 µM, first compound 3.16 µM): 79.7%
viability, T/C (second compound 3.16 µM, first compound 10 µM): 108%
viability, T/C [14]: 102%
viability, T/C [15]: 106%
viability, T/C (second compound 10 µM, first compound 0.316 µM): 97.8%
viability, T/C (second compound 10 µM, first compound 1 µM): 100%
viability, T/C (second compound 10 µM, first compound 3.16 µM): 89.4%
viability, T/C (second compound 10 µM, first compound 10 µM): 81.9%
